Measured values: patent US20260265408A1, “GD2-SPECIFIC CHIMERIC ANTIGEN RECEPTOR EFFECTOR CELLS FOR USE IN THE TREATMENT OF SOLID TUMORS, POSSIBLY IN COMBINATION WITH ENHANCER OF ZESTE HOMOLOG 2 (EZH2) INHIBITORS” (priority 2023, published 2026)

System: CAR.GD2 T-cells
Test: In vivo activation of iC9 suicide gene by AP1903 in PDX-MB mouse model
Design: species or system NSG mice
Description: The in vivo activity of AP1903 on apoptosis induction of CAR. GD2 T-cells was assessed in in vivo PDX-MB mouse model. Briefly, 2×10^5 Med-411FH mCherry/Luciferase were orthotopic infused in 5-week-old female NSG mice. After tumor engraftment, confirmed by bioluminescence monitoring, mice received an intravenous injection (i.v.) of 10×10^6 of NT T or genetically modified CAR.GD2 T cells. Ten days later, when the presence of circulating T cells was confirmed by flow cytometric analysis, mice were randomly divided in four groups and treated or not treated by intraperitoneal (i.p.) infusion with AP1903 (100 mg/mouse) on day +11, day +12 and day +13 (NT-T no AP1903, NT-T AP1903+ or CAR. GD2-T no AP1903, CAR.GD2-T AP1903+). The residual of effector cells was evaluated 24 hours after the last AP1903 treatment by flow cytometric analysis in the peripheral blood or histologic and IHC analysis in brain/tumor tissue. Animals were sacrificed and brains were fixed in 4% formaldehyde in 0.1 mol/L phosphate buffer (pH 7.2) and paraffin embedded. AP1903 (cat. No. 6130, Biotechne-TOCRIS).
The histopathologic analysis was performed as previously reported^74. Briefly, after Haematoxylin/Eosin staining for IHC analysis, the sections were cut to 2.5 μm thick, dewaxed, and rehydrated. Epitope retrieval was performed by boiling the slides with EDTA (pH 9). Endogenous peroxidase was blocked with 3% hydrogen peroxide for 10 minutes followed by another blocking step in 5% serum albumin (BSA) for 1-hour RT. The sections were then incubated with anti-CD3 antibody (1:100, DAKO) or anti-Ki67 (1:100, Abcam) at 4° C. overnight. Secondary biotinylated antibody (K8024, Dako, Carpinteria, USA) and the peroxidase DAB kit (Dako, Carpinteria, USA) were used to reveal the primary antibodies. Slides were then counterstained with hematoxylin, dehydrated with a series of alcohol solutions (70%-100%), followed by three changes of Diasolv and mounted with Diamount (Diapath). Analysis was performed using standard microscopy.

## CC[C@H](C(=O)N1CCCC[C@H]1C(=O)O[C@H](CCc1ccc(OC)c(OC)c1)c1cccc(OCC(=O)NCCNC(=O)COc2cccc([C@@H](CCc3ccc(OC)c(OC)c3)OC(=O)[C@@H]3CCCCN3C(=O)[C@@H](CC)c3cc(OC)c(OC)c(OC)c3)c2)c1)c1cc(OC)c(OC)c(OC)c1 [AP1903]
AP1903 i.p. 100 mg/mouse on three consecutive days, compared to untreated
  circulating CAR.GD2-T cells: significant reduction
AP1903 i.p. on three consecutive days
  tumor-infiltrating CD3+ cells (anti-hCD3 IHC on cerebella slides): eliminate tumor-infiltrating CD3+ cells
Systemic (i.p.) administration
  crossing of the BBB: cross the BBB
